# From ChEMBL document CHEMBL5653615 (J Biol Chem, 2013)
# How the values were obtained:
# [1] = biological target: Mitogen-activated protein kinase 3 (Homo sapiens) (UniProt P27361); assay: Inhibition of human ERK1 at 500 nM by HotSpot assay relative to control
# [2] = biological target: Calcium/calmodulin-dependent protein kinase type II subunit gamma (Homo sapiens) (UniProt Q13555); assay: Inhibition of human CAMK2g at 500 nM by HotSpot assay relative to control
# [3] = biological target: T1, NUAK family SNF1-like kinase 1 (Homo sapiens) (UniProt O60285); assay: Inhibition of human ARK5 at 500 nM by HotSpot assay relative to control
# T1 sequence (whole entry): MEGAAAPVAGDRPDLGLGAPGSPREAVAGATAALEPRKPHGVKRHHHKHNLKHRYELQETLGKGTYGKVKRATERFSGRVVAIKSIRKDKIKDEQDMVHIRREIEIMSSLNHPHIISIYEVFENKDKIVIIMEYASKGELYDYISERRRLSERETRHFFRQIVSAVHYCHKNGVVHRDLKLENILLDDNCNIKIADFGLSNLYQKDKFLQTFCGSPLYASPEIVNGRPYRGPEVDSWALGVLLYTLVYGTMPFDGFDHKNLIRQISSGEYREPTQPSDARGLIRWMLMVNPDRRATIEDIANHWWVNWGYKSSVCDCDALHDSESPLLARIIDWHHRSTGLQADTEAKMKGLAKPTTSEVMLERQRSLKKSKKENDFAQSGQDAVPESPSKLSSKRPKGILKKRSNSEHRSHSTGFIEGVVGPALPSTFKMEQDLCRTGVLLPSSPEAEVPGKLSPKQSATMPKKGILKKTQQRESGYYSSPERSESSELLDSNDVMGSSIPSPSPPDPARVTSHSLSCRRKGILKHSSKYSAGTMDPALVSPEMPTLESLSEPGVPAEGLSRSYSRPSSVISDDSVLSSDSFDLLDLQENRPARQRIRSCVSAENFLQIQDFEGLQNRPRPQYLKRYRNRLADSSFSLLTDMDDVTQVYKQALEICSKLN
# [4] = biological target: T2, Inhibitor of nuclear factor kappa-B kinase subunit epsilon (Homo sapiens) (UniProt Q14164); assay: Inhibition of human IKKe at 500 nM by HotSpot assay relative to control
# T2 sequence (whole entry): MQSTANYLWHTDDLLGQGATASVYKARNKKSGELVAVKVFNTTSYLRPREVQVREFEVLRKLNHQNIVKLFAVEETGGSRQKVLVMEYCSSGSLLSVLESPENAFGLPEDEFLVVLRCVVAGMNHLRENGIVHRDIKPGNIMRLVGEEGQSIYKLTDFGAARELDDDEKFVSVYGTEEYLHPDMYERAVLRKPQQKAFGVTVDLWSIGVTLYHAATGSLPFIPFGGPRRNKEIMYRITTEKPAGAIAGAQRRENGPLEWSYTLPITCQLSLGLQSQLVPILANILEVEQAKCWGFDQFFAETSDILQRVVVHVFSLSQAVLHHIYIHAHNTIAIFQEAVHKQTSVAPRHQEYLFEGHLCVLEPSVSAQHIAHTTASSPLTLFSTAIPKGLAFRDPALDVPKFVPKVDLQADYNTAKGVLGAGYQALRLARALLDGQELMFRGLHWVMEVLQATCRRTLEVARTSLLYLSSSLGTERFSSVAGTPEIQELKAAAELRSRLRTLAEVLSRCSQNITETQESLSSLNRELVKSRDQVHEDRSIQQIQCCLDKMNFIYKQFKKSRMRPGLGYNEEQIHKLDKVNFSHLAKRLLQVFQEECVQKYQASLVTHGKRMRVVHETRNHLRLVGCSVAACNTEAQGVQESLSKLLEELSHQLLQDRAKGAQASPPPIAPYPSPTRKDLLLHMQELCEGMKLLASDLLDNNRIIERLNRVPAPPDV
# [5] = biological target: Tyrosine-protein kinase JAK2 (Homo sapiens) (UniProt O60674); assay: Inhibition of human JAK2 at 500 nM by HotSpot assay relative to control
# [6] = biological target: T3, Ephrin type-B receptor 1 (Homo sapiens) (UniProt P54762); assay: Inhibition of human EPHB1 at 500 nM by HotSpot assay relative to control
# T3 sequence (whole entry): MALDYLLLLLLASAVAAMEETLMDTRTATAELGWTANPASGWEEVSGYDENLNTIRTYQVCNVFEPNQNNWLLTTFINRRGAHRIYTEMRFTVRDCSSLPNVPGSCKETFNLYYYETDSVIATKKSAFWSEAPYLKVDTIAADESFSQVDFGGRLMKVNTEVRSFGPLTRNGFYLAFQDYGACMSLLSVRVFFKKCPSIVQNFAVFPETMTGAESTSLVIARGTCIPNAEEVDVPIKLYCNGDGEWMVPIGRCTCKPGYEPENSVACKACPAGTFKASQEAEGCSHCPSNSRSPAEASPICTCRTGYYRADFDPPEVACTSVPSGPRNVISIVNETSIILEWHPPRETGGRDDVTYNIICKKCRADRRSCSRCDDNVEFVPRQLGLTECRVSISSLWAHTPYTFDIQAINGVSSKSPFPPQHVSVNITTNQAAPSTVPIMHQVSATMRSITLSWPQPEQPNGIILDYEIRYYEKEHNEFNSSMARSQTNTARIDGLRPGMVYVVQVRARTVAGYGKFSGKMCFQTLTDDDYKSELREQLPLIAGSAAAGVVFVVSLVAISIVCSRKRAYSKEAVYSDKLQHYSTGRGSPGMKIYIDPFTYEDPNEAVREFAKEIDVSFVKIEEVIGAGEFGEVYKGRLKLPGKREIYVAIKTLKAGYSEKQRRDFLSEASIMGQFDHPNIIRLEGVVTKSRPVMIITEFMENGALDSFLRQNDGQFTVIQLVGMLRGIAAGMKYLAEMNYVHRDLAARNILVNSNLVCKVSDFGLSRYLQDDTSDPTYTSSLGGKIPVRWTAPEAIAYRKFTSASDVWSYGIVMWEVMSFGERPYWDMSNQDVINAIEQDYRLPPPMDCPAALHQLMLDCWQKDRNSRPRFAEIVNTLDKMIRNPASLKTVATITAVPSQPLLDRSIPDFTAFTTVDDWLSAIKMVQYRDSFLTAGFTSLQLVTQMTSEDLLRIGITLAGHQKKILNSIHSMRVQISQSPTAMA
# [7] = biological target: BDNF/NT-3 growth factors receptor (Homo sapiens) (UniProt Q16620); assay: Inhibition of human TRKB at 500 nM by HotSpot assay relative to control
# Chain of BDNF/NT-3 growth factors receptor (Homo sapiens) (Q16620 32-822 limits assumed): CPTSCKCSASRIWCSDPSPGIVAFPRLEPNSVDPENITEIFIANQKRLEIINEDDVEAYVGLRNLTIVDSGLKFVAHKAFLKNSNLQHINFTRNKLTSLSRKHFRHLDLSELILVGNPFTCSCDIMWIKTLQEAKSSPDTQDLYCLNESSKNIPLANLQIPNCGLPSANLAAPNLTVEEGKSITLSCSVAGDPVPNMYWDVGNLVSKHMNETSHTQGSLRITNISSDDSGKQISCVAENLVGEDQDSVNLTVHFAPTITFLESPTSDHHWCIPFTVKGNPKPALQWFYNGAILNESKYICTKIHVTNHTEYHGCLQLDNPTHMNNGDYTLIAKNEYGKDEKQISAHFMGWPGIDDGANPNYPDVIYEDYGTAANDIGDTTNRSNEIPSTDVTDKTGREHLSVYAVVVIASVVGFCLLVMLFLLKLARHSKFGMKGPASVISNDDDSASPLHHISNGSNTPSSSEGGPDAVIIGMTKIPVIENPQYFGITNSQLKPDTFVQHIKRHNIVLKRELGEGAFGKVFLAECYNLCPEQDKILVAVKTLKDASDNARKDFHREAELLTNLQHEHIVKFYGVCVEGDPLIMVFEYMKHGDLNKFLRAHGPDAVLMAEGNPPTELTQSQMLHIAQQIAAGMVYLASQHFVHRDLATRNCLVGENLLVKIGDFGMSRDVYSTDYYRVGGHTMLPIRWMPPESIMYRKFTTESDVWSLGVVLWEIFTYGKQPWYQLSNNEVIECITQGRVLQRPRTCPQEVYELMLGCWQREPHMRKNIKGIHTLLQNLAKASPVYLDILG
# Chain of Tyrosine-protein kinase JAK2 (Homo sapiens) (O60674 whole entry): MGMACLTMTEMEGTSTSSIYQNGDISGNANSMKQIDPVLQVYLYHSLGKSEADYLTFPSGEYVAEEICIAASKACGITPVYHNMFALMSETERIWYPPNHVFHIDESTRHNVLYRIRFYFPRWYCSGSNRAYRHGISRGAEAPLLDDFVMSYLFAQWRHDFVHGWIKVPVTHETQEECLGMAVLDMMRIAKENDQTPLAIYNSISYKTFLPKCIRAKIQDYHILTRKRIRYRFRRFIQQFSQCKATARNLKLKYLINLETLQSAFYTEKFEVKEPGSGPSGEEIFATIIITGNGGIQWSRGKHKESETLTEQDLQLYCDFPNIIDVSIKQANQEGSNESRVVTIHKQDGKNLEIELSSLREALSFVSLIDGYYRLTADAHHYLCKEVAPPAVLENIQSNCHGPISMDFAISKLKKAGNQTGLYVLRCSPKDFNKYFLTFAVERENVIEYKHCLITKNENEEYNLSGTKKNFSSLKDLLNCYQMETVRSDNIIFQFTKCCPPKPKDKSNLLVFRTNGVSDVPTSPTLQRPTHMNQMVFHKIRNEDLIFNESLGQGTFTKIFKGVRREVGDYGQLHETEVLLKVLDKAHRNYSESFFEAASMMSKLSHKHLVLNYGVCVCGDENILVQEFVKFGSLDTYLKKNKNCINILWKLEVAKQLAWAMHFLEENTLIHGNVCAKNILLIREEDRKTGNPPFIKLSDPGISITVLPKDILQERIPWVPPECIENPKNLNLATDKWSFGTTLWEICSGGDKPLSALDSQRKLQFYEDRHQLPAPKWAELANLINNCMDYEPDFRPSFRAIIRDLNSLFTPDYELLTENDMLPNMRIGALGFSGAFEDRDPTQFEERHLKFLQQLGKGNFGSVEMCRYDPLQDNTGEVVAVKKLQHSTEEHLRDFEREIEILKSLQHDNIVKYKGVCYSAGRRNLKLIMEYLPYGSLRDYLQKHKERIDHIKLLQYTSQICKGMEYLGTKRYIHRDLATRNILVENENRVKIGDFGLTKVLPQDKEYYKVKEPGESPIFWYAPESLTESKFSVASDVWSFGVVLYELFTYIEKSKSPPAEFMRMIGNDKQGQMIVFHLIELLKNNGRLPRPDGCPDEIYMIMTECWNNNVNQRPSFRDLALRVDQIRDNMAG
# Chain of Calcium/calmodulin-dependent protein kinase type II subunit gamma (Homo sapiens) (Q13555 whole entry): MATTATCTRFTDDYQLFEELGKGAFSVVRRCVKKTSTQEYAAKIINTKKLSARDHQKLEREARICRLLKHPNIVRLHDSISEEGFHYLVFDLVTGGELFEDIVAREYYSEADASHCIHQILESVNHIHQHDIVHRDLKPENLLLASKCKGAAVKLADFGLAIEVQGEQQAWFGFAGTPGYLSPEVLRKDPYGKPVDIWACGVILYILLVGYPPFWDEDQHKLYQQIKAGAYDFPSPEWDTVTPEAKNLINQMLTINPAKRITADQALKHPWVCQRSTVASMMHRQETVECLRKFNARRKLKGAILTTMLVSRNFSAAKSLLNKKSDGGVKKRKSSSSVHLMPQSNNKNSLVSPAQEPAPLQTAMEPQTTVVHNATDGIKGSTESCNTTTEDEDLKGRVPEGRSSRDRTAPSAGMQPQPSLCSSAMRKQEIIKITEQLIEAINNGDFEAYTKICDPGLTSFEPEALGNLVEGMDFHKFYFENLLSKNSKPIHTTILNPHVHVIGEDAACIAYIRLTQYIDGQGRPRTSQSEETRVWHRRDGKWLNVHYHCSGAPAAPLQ
# Chain of Mitogen-activated protein kinase 3 (Homo sapiens) (P27361 whole entry): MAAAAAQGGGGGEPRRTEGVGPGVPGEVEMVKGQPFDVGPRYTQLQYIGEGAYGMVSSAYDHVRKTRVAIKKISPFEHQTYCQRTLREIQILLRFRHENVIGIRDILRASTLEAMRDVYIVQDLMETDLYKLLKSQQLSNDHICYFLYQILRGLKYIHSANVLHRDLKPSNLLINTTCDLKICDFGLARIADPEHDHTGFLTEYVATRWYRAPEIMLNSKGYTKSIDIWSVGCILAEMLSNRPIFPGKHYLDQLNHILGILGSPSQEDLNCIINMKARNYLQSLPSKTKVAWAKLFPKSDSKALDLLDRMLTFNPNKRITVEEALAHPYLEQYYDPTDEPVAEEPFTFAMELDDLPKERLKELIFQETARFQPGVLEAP
SMILES,inhibition [1] [%],inhibition [2] [%],inhibition [3] [%],inhibition [4] [%],inhibition [5] [%],inhibition [6] [%],inhibition [7] [%]
Nc1n[nH]c2nnc(-c3c(-c4ccccc4)nn4ccccc34)cc12,34.2,3.3,7.47,4.54,2.93,1.38,10.3
Oc1n[nH]c2nnc(-c3c(-c4ccccc4)nn4ccccc34)cc12,-2.01,2.06,1.9,0.81,2.36,2.52,2.59
